Test results reported in patent US9790541B2, “Methods and compositions for labeling nucleic acids” (President and Fellows of Harvard College, priority 2005, dated 2017).

Tests used:
HeLa cells [1] = test: Labeling of HeLa cells with EdU, fixed/permeabilized, stained with Xrhodamine-azide; assay type: cell-based; conditions: 1 μM EdU; cell in anaphase; labeling pulse shorter than DNA replication time
Procedure: Ethynyl-dU (EdU) was used in tissue culture media (DMEM complemented with penicillin, streptomycin, and fetal calf serum (FCS)) ranging from 10 nM to 1 μM depending on the length of the labeling pulse. For example, if cells to be labeled were synchronized in the S phase, 100 nM to 1 μM of EdU was used for 1 to 2 hours. After labeling, the cells were washed 3 or 4 times with PBS and then tissue culture media was added.
Staining Solution: 100 mM Tris pH 8.5 (from 2 M stock in water), 0.5 to 1 mM CuSO4 (from 1 M stock in water), 0.5 to 1 μM fluorophore-azide (from approximately 10-100 mM stock in DMSO), and water (as required) were mixed together. Ascorbic acid (from a […] stock in water) was then added to this solution to a final concentration of 50-100 mM, and the resulting staining solution is mixed thoroughly using a vortex.
Cells can be fixed by any suitable method, e.g., cells can be fixed by aldehyde fixation (formaldehyde or glutaraldehyde), with or without permeabilization. After fixation, the cells were washed in buffer with or without non-ionic detergent (0.2-0.5% Triton X100). Before staining, cells were rinsed with buffer without detergent (PBS or TBS). The cells were then incubated in the presence of the staining solution for at least 30 minutes. Overnight staining is preferably performed in a cold room.

HeLa cells [2] = test: Staining of EdU-labeled live cells with TMR-propyl-azide, time-lapse fluorescence microscopy; assay type: cell-based; conditions: 200 nM TMR-propyl-azide, 37° C., FIG. 7
Procedure: Ascorbic acid (from a […] stock in water) was then added to this solution to a final concentration of 50 mM, and the resulting staining solution is mixed thoroughly.
Washes with methanol or ethanol may be performed to obtain low background
To facilitate live microscopic imaging, EdU-labeled cells were plated in coverslip chambers which were mounted on the heated stage (37° C.) of an inverted Nikon TE200)U microscope equipped for wide-field fluorescence microscopy as well as spinning-disk confocal fluorescence microscopy (Yokogama spinning disk confocal head from Perkin-Elmer). […] The cells were imaged by time-lapse fluorescent microscopy (one frame every 15 seconds) to detect the TMR signal accumulating in the nuclei of the EdU-labeled cells.

[3] = system: mouse intestine and brain; test: In vivo labeling with EdU, organ sections stained with Xrhodamine-azide and Hoechst; parameters: species or system mice; conditions: 200 micrograms EdU intraperitoneally, organs harvested three days later
Procedure: BLAB/C mice were injected with 200 micrograms of EdU intraperitoneally. Three days later, organs were harvested, fixed, embedded in paraffin and sectioned. The sections were then de-waxed and stained with Xrhadomine-azide for 5 minutes, stained with Hoechst, washed and then mounted.

HeLa cells [4] = test: Tracing a single sister chromatid: EdU pulse, chase of two cell cycles, Alexa568-azide staining; assay type: cell-based; conditions: EdU pulse during DNA synthesis, Alexa568-azide stain
Source text: The purpose of the experiment reported herein was to label only one DNA molecule of the two that form a chromosome. That was accomplished by pulsing HeLa cells with EdU during DNA synthesis followed by a chase lasting two cell cycles, as depicted on FIG. 12. […] EdU allowed very nice resolution imaging of chromosomes in cells as shown by FIG. 13.

`C#Cc1cn([C@H]2C[C@H](O)[C@@H](CO)O2)c(=O)[nH]c1=O` [EdU, 5-ethynyl-2′ deoxyuracil] was tested, and the “DNA labeling by EdU in HeLa cells” value (HeLa cells [1]) was “only the DNA replicating during the pulse was labeled”, the “EdU detection over time (DNA staining intensity)” value (HeLa cells [2]) was “complete within minutes” and the “EdU-labeled cells in intestine section” value ([3]; FIG. 8) was “cells with red nuclei are the cells which incorporated EdU”. The “EdU-labeled cells in brain section” value ([3]; FIG. 10) was “sole EdU-labeled cell”, the “DNA molecules of a chromosome labeled, first mitosis after labeling” value (HeLa cells [4]) was “both DNA molecules were labeled” and the “DNA molecules of a chromosome labeled, second mitosis” value (HeLa cells [4]) was “only one DNA molecule was labeled”.
